The values that follow come from US8933099B2, “Monocyclic pyridine derivative” (Eisai R&D Management Co., Ltd., priority 2013, dated 2015).

Assay [1] relates to human stomach cancer cell line SNU-16 (FGFR2 gene amplification). Put plainly: SNU-16 growth inhibition assay. Format: cell-based. The conditions noted are these: Homo sapiens, SNU-16, 72 h, read-out: SNU-16 (IC50 (nM)), cell growth, 3 days, Cell Counting Kit-8. As for the experimental part:
In this assay, the growth inhibitory activity of a test substance in a human stomach cancer cell line harboring FGFR2 gene amplification is measured.
Then, 10 μL of Cell Counting Kit-8 (Dojindo Laboratories, CK04) was added to each well, and the resultant was incubated for 1 to 2 hours in a 5% CO2 incubator (37° C.) to cause a color reaction. The absorbance value was measured with ENVISION™ (PerkinElmer Co., Ltd.) at 450 nm.
(Tetrazolium assays rely on reduction of a dye to a coloured formazan, in cell work by metabolically active cells.)

Assay [2] deals with normal human umbilical vein endothelial cells (HUVEC). Put plainly: HUVEC growth inhibition assay (VEGF-induced). Format: cell-based. Conditions: Homo sapiens, HUVEC, 72 h, read-out: HUVEC (IC50 (nM)), growth in the presence of VEGF 10 ng/mL, 3 days. The protocol: The absorbance value was measured with ENVISION™ (PerkinElmer Co., Ltd.) at 450 nm. The absorbance values of the wells without adding the test substance but with VEGF addition was defined as 100% and the absorbance values of the wells with neither the test substance nor VEGF addition was defined as 0%.

For `CNC(=O)n1ccc2cc(Oc3ccnc(NC(=O)c4cnn(C5CCN(C[C@H](C)O)CC5)c4)c3)c(OC)cc21` [Example 45], the IC50 in assay [1] was determined as 15.5 nM; in assay [2] it was 379 nM.
The matching figures for `CNC(=O)n1ccc2cc(Oc3ccnc(NC(=O)c4cnn(C5CCN(C(C)C)CC5)c4)c3)c(OC)cc21` [Example 46]: 17.4 nM and 402 nM.
As for `CNC(=O)n1ccc2cc(Oc3ccnc(NC(=O)c4ccc(C5CN(C(C)C)C5)cc4)c3)c(OC)cc21` [Example 47], the IC50 is 13.1 nM in assay [1] and 174 nM in assay [2].
As to `CNC(=O)n1ccc2cc(Oc3ccnc(NC(=O)c4ccc(C5CN(CC(C)(C)O)C5)cc4)c3)c(OC)cc21` [Example 48], the IC50 in assay [1] amounted to 11.7 nM; in assay [2], 77.8 nM.
On to `CCN1CC(c2ccc(C(=O)Nc3cc(Oc4cc5ccn(C(=O)NC)c5cc4OC)ccn3)cc2)C1` [Example 49], for which the results for the IC50 in assay [1] and in assay [2] were 9.6 nM and 163 nM, respectively.
The matching figures for `CNC(=O)n1ccc2cc(Oc3ccnc(NC(=O)c4ccc(CN5CCC[C@@H]5CO)cc4)c3)c(OC)cc21` [Example 50]: 16.6 nM and 394 nM.
In the same order, the values of `CNC(=O)n1ccc2cc(Oc3ccnc(NC(=O)c4ccc(CN5CCC[C@H]5CO)cc4)c3)c(OC)cc21` [Example 51] are 12.5 nM and 410 nM.
With `CNC(=O)n1ccc2cc(Oc3ccnc(NC(=O)c4ccc(CN5CC[C@H](O)C5)cc4)c3)c(OC)cc21` [Example 52], the IC50 worked out at 14.4 nM in assay [1] and 388 nM in assay [2].
Take `CNC(=O)n1ccc2cc(Oc3ccnc(NC(=O)c4ccc(CN5CC[C@@H](O)C5)cc4)c3)c(OC)cc21` [Example 53]: the IC50 is 14.5 nM in assay [1] and 401 nM in assay [2].
As for `CNC(=O)n1ccc2cc(Oc3ccnc(NC(=O)c4ccc(C5CCN(C[C@@H](C)O)CC5)cc4)c3)c(OC)cc21` [Example 54], the figures for the IC50 in assay [1] and in assay [2] were 6.4 nM and 86.7 nM, respectively.
The matching figures for `CCN1CCN(CCOc2ccc(C(=O)Nc3cc(Oc4cc5ccn(C(=O)NC)c5cc4OC)ccn3)cc2)CC1` [Example 55]: 20.8 nM and 201 nM.
For `CNC(=O)n1ccc2cc(Oc3ccnc(NC(=O)c4ccc(CCN5CCC(O)CC5)cc4)c3)c(OC)cc21` [Example 56], the IC50 is 15 nM in assay [1] and 96.8 nM in assay [2].
In the same order, the values of `CNC(=O)n1ccc2cc(Oc3ccnc(NC(=O)c4ccc(C5CCN(C)CC5)cc4)c3)c(OC)cc21` [Example 57] are 7.6 nM and 127 nM.
The matching figures for `CCOc1cc2c(ccn2C(=O)NC)cc1Oc1ccnc(NC(=O)c2ccc(C3CCN(C(C)C)CC3)cc2)c1` [Example 59]: 14.5 nM and 253 nM.
Regarding `CCOc1cc2c(ccn2C(=O)NC)cc1Oc1ccnc(NC(=O)c2ccc(C3CCN(C[C@@H](C)O)CC3)cc2)c1` [Example 60], the IC50 stood at 14.7 nM in assay [1] and 178 nM in assay [2].
Consider `CCOc1cc2c(ccn2C(=O)NC)cc1Oc1ccnc(NC(=O)c2ccc(C3CCN(C[C@H](C)O)CC3)cc2)c1` [Example 61], for which the IC50 in assay [1] worked out at 10.7 nM; in assay [2], 182 nM.
In the same order, the values of `CCOc1cc2c(ccn2C(=O)NC)cc1Oc1ccnc(NC(=O)c2ccc(N3CCC(N4CCCC4)CC3)cc2)c1` [Example 62] are 27.4 nM and 223 nM.
As for `CCOc1cc2c(ccn2C(=O)NC)cc1Oc1ccnc(NC(=O)c2ccc(C3CCN(CCO)CC3)cc2)c1` [Example 63], the IC50 was found to be 9.6 nM in assay [1] and 170 nM in assay [2].
For `CCOc1cc2c(ccn2C(=O)NC)cc1Oc1ccnc(NC(=O)c2ccc(C3CCN(C)CC3)cc2)c1` [Example 64], the IC50 in assay [1] was found to be 10.3 nM; in assay [2], 175 nM.
In the same order, the values of `CCOc1cc2c(ccn2C(=O)NC)cc1Oc1ccnc(NC(=O)c2ccc(CN3CCC(O)CC3)cc2)c1` [Example 65] are 23.6 nM and 575 nM.
